Series [1] concerns 40 more frequent nonsense mutations found in DMD gene. The experiment in a line: Dual reporter readthrough on the 40 most frequent DMD nonsense mutations. The series is classed as cell-based. More on the design: number of DMD nonsense sequences on which readthrough is promoted: dose or concentration left out as unconfirmed. From the text: Complementary oligonucleotides corresponding to TP53 R213X nonsense mutations and 9 nucleotides on both sides are ligated into the pAC99 dual reporter plasmid, as previously described (Premature stop codons involved in muscular dystrophies show a broad spectrum of readthrough efficiencies in response to gentamicin treatment, Bidou et al, Gene Therapy 1 Apr. 2004, 11(7):619-627). This dual reporter is used to quantify stop-codon readthrough through the measurement of luciferase and beta-galactosidase (internal calibration) activities, as previously described (Stahl et al, Versatile vectors to study recoding: conservation of rules between yeast and mammalian cells. Nucleic Acids Res 1995; 23:1557-60). Readthrough levels for nonsense mutations were analysed in the presence or absence of tested molecules. Cells were seeded in a 6-well plate. […] The following day, they are rinsed with fresh medium, with or without readthrough inducers. […] Readthrough efficiency was estimated by calculating the ratio of luciferase activity to beta-galactosidase activity obtained with the test construct, with normalisation against an in-frame control construct. […]
Each nonsense mutation (+9 nucleotides in each side) has been cloned into the dual reporter previously used. Stop codon readthrough efficiency has been quantified either without drug or in presence of gentamicin or TLN68, in 6 independent experiments. […]

A further series deals with TP53-R213X mRNA. The experiment in a line: RT-qPCR of mutant p53 mRNA in HDQ-P1 cells. The format is cell-based, human. To be noted: HDQ-P1, 48 hours; TLN68 80 μM, TLN309 40 μM; n=3. The protocol:
(§1) For the analysis of mRNA levels for p53 and its transcriptional target genes, Bax, the inventors extracted total RNA from HDQ-P1 cells that had or had not been treated with G418 (400 μM) or TLN68 (80 μM) for 48 hours (RNeasy Mini Kit, Qiagen). The RNA was treated with DNAse I (RNase-free DNase) and quantified with a Nanodrop spectrometer (ThermoScientific). The absence of RNA degradation was confirmed by agarose gel electrophoresis. The first-strand cDNA was synthesized from 2 μg of total RNA, with random primers and the SuperScript II Reverse Transcriptase (Invitrogen), as recommended by the manufacturer. Quantitative PCR was then carried out on equal amounts of the various cDNAs, with a CFX96 thermocycler (Biorad), and the accumulation of products was monitored with the intercalating dye FastStart Universal SYBRGreen Master (ROX) reagent (Roche). The inventors quantified mRNA levels relative to three reference mRNAs: RPL32, Hprt1 and HMBS. In each experiment, results are expressed relative to those for untreated cells, for which the value obtained was set to 1. Relative levels of gene expression were calculated at early stages of PCR, when the amplification was exponential and might, therefore, be correlated with the initial number of copies of the transcript. […] For the quantification of each mRNA, three independent experiments (from biological replicates) were performed in triplicate. […]
(In general: In qPCR the cycle at which signal appears reflects the starting amount.)

For series [2], the system named is p53-R213X transcriptional activity. The experiment in a line: TP53 protein activity assay (p53BS-luc reporter) in H1299 cells. The format is cell-based, human. To be noted: H1299 cotransfected with pCMV-R213X, pCMVLacZ, 20 hours, TLN68 20, 50, 80 and 100 mM as printed. The protocol:
The inventors investigated the transcriptional activity of the p53 protein in H1299, a p53-null cell line. Cells were cotransfected, by the JetPei method, with the p53BS-luc reporter plasmid containing the firefly luciferase gene downstream from seven p53 binding sites, the pCMVLacZ and the pCMVp53R213X containing the p53 cDNA interrupted by the stop mutation R213X. TLN68 ([…]) was added to the medium just before transfection for a total of 20 hours of treatment. Protein extracts were then prepared and enzymatic activities were measured. Transfection with pCMVLacZ was used to normalise transfection efficiency, cell viability and protein extraction. At least six independent transfection experiments were performed for each set of conditions.

The subject of the next series is Bax mRNA (target of p53). The experiment in a line: RT-qPCR of Bax mRNA in HDQ-P1 cells. The format is cell-based, human. The note with it: HDQ-P1, TLN68 80 μM, 48 hours, n=3. The protocol: as §1
A further series concerns HDQ-P1 cells. The experiment in a line: WST1 tetrazolium viability assay, HDQ-P1. The format is cell-based, human. The note with it: HDQ-P1, 24 h, maximal dose used. The protocol: (§2) The inventors tested the effect of TLN68 on viability of NIH3T3, HDQ-P1 and HeLa cell lines by using a tetrazolium salt which is cleaved only by metabolically active cells. Cells were treated or not with a range of TLN68 doses during 24 h and viability was measured.
(In general: Formazan colour is commonly taken as a measure of viable cells.)

A further series concerns NIH3T3 cells. The series can be described thus: WST1 tetrazolium viability assay, NIH3T3. The series is classed as cell-based, mouse. The note with it: NIH3T3, 24 h, maximal dose used. As to the method: as §2

One compound from patent US20230183187A1, “QUINAZOLINE COMPOUNDS AS INHIBITORS OF PREMATURE TERMINATION CODONS” (CENTRE NATIONAL DE LA RECHERCHE SCIENTIFIQUE, priority 2020, published 2023) can be followed below.

Each structure is given as a SMILES string.

Turning to `Cc1nc(NC(=N)N)nc2ccccc12` [TLN68], the “readthrough compared with gentamicin on the DMD set of sequences” value in series [1] (gentamicin 2.5 mM, same conditions) is given as “outperforms gentamicin”. Besides, in series [1] (out of 40 tested, 6 independent experiments), the “number of DMD nonsense sequences on which readthrough is promoted” value came to 28. In addition, in the series on TP53-R213X mRNA, the “stabilisation of TP53-R213X mRNA relative to untreated” value was 6 fold. Moreover, the “increase of the p53-dependent luciferase” value in series [2] is listed as 3.5 fold. Besides, the “induction of bax mRNA level relative to untreated” value in the series on Bax mRNA (target of p53) was 3 fold. Besides, the viable cells is 70% with HDQ-P1 cells and 80% with NIH3T3 cells.
